# According to publication PMC9607164, “Rational Design, Synthesis and Biological Evaluation of Novel Pyrazoline-Based Antiproliferative Agents in MCF-7 Cancer Cells” (Pharmaceuticals, 2022):
# Several values for one entry are separate records, joined by “and”; a condition that tells them apart may be missing. Identical values can stand only once. Like-named read-outs stand apart in the source and are kept apart here.
# Assays:
# Bcl-2 = assay: RT-PCR gene expression in MCF-7 cells; assay type: cell-based; settings: MCF-7, IC50, 48 h, normalized to β-actin, untreated = 1
# Procedure: (§1) Furthermore, to explore the apoptotic pathway, gene expression of proapoptotic genes (P53, Bax, Caspapses-3,8,9) and antiapoptotic gene (Bcl-2) was evaluated using routine RT-PCR in the untreated and treated MCF-7 cells. Ct values were calculated to determine the relative genes expression in all samples by normalization to β-actin (housekeeping gene).
# P53 = assay: RT-PCR gene expression in MCF-7 cells; assay type: cell-based; settings: MCF-7, IC50, 48 h, normalized to β-actin, untreated = 1
# Procedure: as §1
# Bax = assay: RT-PCR gene expression in MCF-7 cells; assay type: cell-based; settings: MCF-7, IC50, 48 h, normalized to β-actin, untreated = 1
# Procedure: as §1
# Casp-3 = assay: RT-PCR gene expression in MCF-7 cells; assay type: cell-based; settings: MCF-7, IC50, 48 h, normalized to β-actin, untreated = 1
# Procedure: as §1
# Casp-8 = assay: RT-PCR gene expression in MCF-7 cells; assay type: cell-based; settings: MCF-7, IC50, 48 h, normalized to β-actin, untreated = 1
# Procedure: as §1
# Casp-9 = assay: RT-PCR gene expression in MCF-7 cells; assay type: cell-based; settings: MCF-7, IC50, 48 h, normalized to β-actin, untreated = 1
# Procedure: as §1
# MCF-7 cells [1] = assay: Annexin V/PI staining flow cytometry; assay type: cell-based; settings: MCF-7, treated at IC50, 48 h; for late apoptosis: AV+/PI+; for early apoptosis: AV+/PI−; for apoptotic cell death (total): control 0.68%
# Procedure: MCF-7 breast cancer cells were seeded into 6-well culture plates (3–5 × 10^5 cells/well) and incubated for 24 h. […] After that, the collection of the media supernatants and the cells was performed before undergoing rinsing with ice-cold PBS. The cells were suspended in 100 µL of annexin-binding buffer solution “25 mM CaCl2, 1.4 M NaCl, and 0.1 M Hepes/NaOH, pH 7.4” and incubated with “Annexin V-FITC solution (1:100) and propidium iodide (PI)” at a concentration equal 10 µg/mL in the dark for 30 min. Stained cells were then obtained by a Cytoflex FACS machine, and data analysis was performed using cytExpert software.
# [2] = assay type: in vivo
# Source text: In vivo experiments for lethal dose (LD50), experimental design, tumor mass, blood parameters, histopathological examinations were accomplished as previously described. After inoculating the tumor cells, masses of the solid tumor started to appear ten days later. […]. Animals from each group were sacrificed, and their blood was drawn to measure hemoglobin (Hb), red blood cell (RBC), white blood cell (WBC), and liver enzymes (ALT, AST, albumin, and total protein) levels.
# MCF-7 cancer cells = assay: MTT cytotoxicity assay on MCF-7; assay type: cell-based; settings: for LogIC50 MCF-7: Figure 4 curve fit, cell viability vs. log [conc. µM]; for IC50: MTT assay, 48 h, n = 3, NA: Non-Active, read-out: IC50 ± SD, MCF-7
# Procedure: (§2) Both breast cancer (MCF-7) and normal breast (MCF-10A) cells were purchased from National Research Institute, Egypt, and maintained in complete media of RPMI-1640 medium L-Glutamine (Lonza Verviers SPRL, Belgium, cat#12-604F). Cells were incubated following standard tissue culture work. Cell viability was measured 48 h later, utilizing MTT colorimetric assay (Promega, Madison, WI, USA). Absorbance was consequently assessed (at 570 nm) using an ELISA microplate reader (BIO-RAD, model iMark, Tokyo, Japan). Using GraphPad Prism 7, the IC50 values were determined, and the viability at each concentration was determined in comparison to the control.
# [3] = system: MCF-10A normal breast cells; assay: MTT cytotoxicity assay on MCF-10A; assay type: cell-based; settings: Homo sapiens, 48 h, n = 3, read-out: IC50 ± SD, MCF-10A
# Procedure: as §2
# MCF-7 cells [4] = assay: DNA content flow cytometry cell cycle analysis; assay type: cell-based; settings: MCF-7 after treatment
# [5] = system: MCF-7 cells (Xenograft model); assay type: in vivo, mice; settings: 10 mg/kg BW, IP
# Source text: In vivo experiments for lethal dose (LD50), experimental design, tumor mass, blood parameters, histopathological examinations were accomplished as previously described. After inoculating the tumor cells, masses of the solid tumor started to appear ten days later. […] Animals from each group were sacrificed, and their blood was drawn to measure hemoglobin (Hb), red blood cell (RBC), white blood cell (WBC), and liver enzymes (ALT, AST, albumin, and total protein) levels.
# EGFR Kinase = molecular target: T1, EGFR Kinase (Homo sapiens, UniProt P00533); assay: EGFR Kinase Assay Kit (BPS Bioscience); assay type: biochemical; settings: mean ± SD of three replicates, five concentrations
# T1 construct: purchased BPS Bioscience 40321
# T1 sequence (P00533 25-1210): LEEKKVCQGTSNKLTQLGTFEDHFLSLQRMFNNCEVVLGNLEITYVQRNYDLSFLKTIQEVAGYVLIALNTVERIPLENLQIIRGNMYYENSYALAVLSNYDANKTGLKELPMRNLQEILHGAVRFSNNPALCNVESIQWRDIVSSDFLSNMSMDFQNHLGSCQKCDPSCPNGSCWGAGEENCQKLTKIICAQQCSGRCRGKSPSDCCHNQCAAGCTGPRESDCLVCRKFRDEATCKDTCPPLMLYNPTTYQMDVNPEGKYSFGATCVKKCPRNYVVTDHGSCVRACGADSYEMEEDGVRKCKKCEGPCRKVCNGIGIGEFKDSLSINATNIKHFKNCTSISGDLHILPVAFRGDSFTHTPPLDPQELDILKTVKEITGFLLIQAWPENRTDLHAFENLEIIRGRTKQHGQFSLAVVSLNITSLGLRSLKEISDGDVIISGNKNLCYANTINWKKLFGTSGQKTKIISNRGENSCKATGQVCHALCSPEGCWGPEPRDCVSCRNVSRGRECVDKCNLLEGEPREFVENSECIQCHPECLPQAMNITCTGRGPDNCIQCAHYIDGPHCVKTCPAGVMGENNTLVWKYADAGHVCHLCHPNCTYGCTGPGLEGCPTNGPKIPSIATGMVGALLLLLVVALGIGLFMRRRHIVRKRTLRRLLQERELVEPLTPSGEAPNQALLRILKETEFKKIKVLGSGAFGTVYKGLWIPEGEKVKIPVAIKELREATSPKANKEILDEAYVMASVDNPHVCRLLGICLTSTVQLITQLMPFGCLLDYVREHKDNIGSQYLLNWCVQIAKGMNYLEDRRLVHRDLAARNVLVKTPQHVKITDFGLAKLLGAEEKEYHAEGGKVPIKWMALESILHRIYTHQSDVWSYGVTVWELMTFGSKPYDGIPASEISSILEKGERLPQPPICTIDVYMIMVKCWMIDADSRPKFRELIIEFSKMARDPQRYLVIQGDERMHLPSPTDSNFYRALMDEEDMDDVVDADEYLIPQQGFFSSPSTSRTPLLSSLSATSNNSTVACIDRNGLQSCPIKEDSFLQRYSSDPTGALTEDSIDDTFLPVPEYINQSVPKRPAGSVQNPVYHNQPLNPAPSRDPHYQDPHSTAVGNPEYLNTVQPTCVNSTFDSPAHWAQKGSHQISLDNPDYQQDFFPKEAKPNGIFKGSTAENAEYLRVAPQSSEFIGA
# Procedure: (§3) Compounds’ autophosphorylation percentage inhibition was computed according to the following equation: […] , then IC50 values were calculated using GraphPad prism software.
# HER2 Kinase = molecular target: T2, HER2 Kinase (Homo sapiens, UniProt P04626); assay: HER2 Kinase Assay Kit (BPS Bioscience); assay type: biochemical; settings: mean ± SD of three replicates, five concentrations
# T2 construct: purchased BPS Bioscience 40721
# T2 sequence (P04626 23-1255): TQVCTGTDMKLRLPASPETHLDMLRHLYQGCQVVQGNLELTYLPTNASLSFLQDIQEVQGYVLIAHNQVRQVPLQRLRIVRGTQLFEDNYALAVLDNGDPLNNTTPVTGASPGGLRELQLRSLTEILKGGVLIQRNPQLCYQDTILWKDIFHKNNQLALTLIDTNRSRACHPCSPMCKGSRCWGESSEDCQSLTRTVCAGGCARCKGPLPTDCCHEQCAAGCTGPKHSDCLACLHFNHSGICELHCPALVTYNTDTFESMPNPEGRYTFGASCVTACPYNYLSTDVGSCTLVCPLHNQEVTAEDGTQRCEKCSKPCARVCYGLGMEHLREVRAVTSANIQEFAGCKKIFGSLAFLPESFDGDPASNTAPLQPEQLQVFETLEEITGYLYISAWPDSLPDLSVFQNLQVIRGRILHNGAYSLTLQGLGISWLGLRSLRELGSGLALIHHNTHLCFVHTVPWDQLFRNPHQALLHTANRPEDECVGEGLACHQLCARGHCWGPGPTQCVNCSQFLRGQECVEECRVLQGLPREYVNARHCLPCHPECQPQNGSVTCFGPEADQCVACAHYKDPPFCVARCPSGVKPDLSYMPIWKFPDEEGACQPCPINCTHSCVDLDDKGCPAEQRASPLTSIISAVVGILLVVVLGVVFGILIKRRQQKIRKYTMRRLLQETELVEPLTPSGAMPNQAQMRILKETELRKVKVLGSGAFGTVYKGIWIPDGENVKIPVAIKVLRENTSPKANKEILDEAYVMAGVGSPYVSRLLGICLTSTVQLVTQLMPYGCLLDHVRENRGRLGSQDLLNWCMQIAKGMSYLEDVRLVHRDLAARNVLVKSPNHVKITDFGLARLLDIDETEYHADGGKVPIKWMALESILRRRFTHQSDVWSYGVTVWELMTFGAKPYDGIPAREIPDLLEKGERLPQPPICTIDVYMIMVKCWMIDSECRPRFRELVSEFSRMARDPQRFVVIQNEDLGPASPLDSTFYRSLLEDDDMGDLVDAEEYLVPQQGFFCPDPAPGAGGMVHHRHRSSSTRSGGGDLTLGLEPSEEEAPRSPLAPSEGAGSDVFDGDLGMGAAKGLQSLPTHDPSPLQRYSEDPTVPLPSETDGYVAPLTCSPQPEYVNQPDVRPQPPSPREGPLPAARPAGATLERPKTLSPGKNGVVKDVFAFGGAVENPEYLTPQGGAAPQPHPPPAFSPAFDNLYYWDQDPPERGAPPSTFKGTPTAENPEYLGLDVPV
# Procedure: as §3
# EGFR = system: EGFR; parameters: method as in PMID 33872924; settings: reported phenylthiazole derivative; cited from earlier work
# mutant EGFR (L858R) = system: mutant EGFR (L858R); parameters: method as in PMID 35427766; settings: allosteric inhibitor; cited from earlier work
SMILES,"Fold Change = 2^−ΔΔCT, Bcl-2 (Bcl-2)","Fold Change = 2^−ΔΔCT, P53 (P53)","Fold Change = 2^−ΔΔCT, Bax (Bax)","Fold Change = 2^−ΔΔCT, Casp-3 (Casp-3)","Fold Change = 2^−ΔΔCT, Casp-8 (Casp-8)","Fold Change = 2^−ΔΔCT, Casp-9 (Casp-9)",late apoptosis (MCF-7 cells [1]) [%],early apoptosis (MCF-7 cells [1]) [%],apoptotic cell death (total) (MCF-7 cells [1]) [%],LogIC50 MCF-7 (MCF-7 cancer cells),"IC50 (MCF-7 cancer cells; Homo sapiens, MCF7, 48 h) [µM]",IC50 (MCF-7 cancer cells) [µM],IC50 [3] [µM],IC50 (EGFR Kinase) [µM],further results
"COc1ccc(C2CC(c3ccc(OC)c(OC)c3)=NN2c2nc(-c3ccccc3)cs2)cc1 (stereo not shown) [Compound 6e, 2-(3-(3,4-Dimethoxyphenyl)-5-(4-methoxyphenyl)-4,5-dihydro-1H-pyrazol-1-yl)-4-phenylthiazole]",0.22 ± 0.06 fold,4.85 ± 0.4 fold,6.39 fold and 6.39 ± 0.8 fold,7.12 fold and 7.12 ± 0.53 fold,1.71 fold and 1.71 ± 0.18 fold,8.19 fold and 8.19 ± 0.32 fold,18.52,9.47,27.99,0.862,7.28,7.21 ± 0.48,≥ 50,0.009 ± 0.001,"mice weight ([2]; 10 mg/kg BW, IP, MCF-7 control 32.28 g, normal 24.5 g): 28.23 g; histopathological examination of liver sections ([2]; mouse, in vivo): normal nuclei morphology in most of the cells with slight hydrophobic degeneration; percentage of cells in the S phase (MCF-7 cells [4]; control 34.18): 44.52%; tumor inhibition ratio ([5]; seven administrations): 52.46%; tumor volume ([5]; decreased from 89.8): 28.4 mm^3"
"COc1ccc(C2=NN(c3nc(-c4ccc(F)cc4)cs3)C(c3ccc(Cl)cc3)C2)cc1OC (stereo not shown) [Compound 6k, 2-(5-(4-Chlorophenyl)-3-(3,4-dimethoxyphenyl)-4,5-dihydro-1H-pyrazol-1-yl)-4-(4-fluorophenyl)thiazole]",0.41 fold and 0.41 ± 0.09 fold,3.91 fold and 3.91 ± 0.50 fold,5.24 fold and 5.24 ± 0.4 fold,5.79 fold and 5.79 ± 0.4 fold,3.91 fold and 3.91 ± 0.42 fold,6.07 fold and 6.07 ± 0.23 fold,14.38,8.06,22.44,0.9042,8.02,8.02 ± 0.98,≥ 50,0.014 ± 0.001,"IC50 (HER2 Kinase): 0.027 ± 0.002 µM; percentage of cells in the G2/M phase (MCF-7 cells [4]; printed 'reduced by', control 9.7%): 2.01%"
COc1ccc(-c2csc(NC(=O)CSc3nc(-c4ccc(OC)cc4)c(C#N)c(=O)[nH]3)n2)cc1 [VI],,,,,,,,,,,,,,,IC50 (EGFR): 0.19 µM
O=C(Nc1nccs1)C(c1cc(F)ccc1O)N1Cc2ccccc2C1=O (stereo not shown) [EAI045],,,,,,,,,,,,,,,IC50 (mutant EGFR (L858R)): 0.019 µM
